Common to all, as to format: functional
Assay [1] has as its system Rattus norvegicus. In words: Percentage of animals disrupted was determined in groups of LSD trained rat at a dose of 8.21 (umol/kg),(no. of animals = 8).
The subject of assay [2] is Rattus norvegicus. Put plainly: Tested for stimulus generation in rats trained to discriminate +/-MDMA from saline at 12.31 (umol/kg),(number of animals = 8).
Assay [3] relates to Rattus norvegicus. Put plainly: Tested for stimulus generation in rats trained to discriminate +/-MDMA from saline at 16.41(.umol/kg),(number of animals = 11).
For assay [4], the system named is Rattus norvegicus. Put plainly: Percentage of animals disrupted was determined in groups of LSD trained rat at a dose of 18.46 (umol/kg),(no. of animals=9).
Assay [5] deals with Rattus norvegicus. Put plainly: Tested for stimulus generation in rats trained to discriminate +/-MDMA from saline at 4.10 (umol/kg),(number of animals = 8).
The test system of assay [6] is Rattus norvegicus. Put plainly: Percentage of animals disrupted in groups of MDMA trained rats at a dose of 4.10 (umol/kg),(number of animals = 8).
Assay [7] deals with Rattus norvegicus. Put plainly: Tested for stimulus generation in rats trained to discriminate +/-MDMA from saline at 8.21 (umol/kg),(number of animals = 9).
Assay [8] deals with Rattus norvegicus. In words: Tested for stimulus generation in rats trained to discriminate LSD from saline at a dose 16.41(.umol/kg),(number of animals = 11).
The subject of assay [9] is Rattus norvegicus. Put plainly: Percentage of animals disrupted was determined in groups of LSD trained rat at a dose of 6.15 (uM/kg), (no.of animals = 11).
The test system of assay [10] is Rattus norvegicus. Put plainly: Tested for stimulus generation in rats trained to discriminate LSD from saline at 4.10 (umol/kg),(number of animals = 10).
The test system of assay [11] is Rattus norvegicus. In words: Percentage of animals disrupted in groups of MDMA trained rats at a dose of 20.51 (umol/kg),(number of animals = 7).
The subject of assay [12] is Rattus norvegicus. Put plainly: Percentage of animals disrupted was determined in groups of LSD trained rat at a dose of 16.41 (umol/kg),(no. of animals=11).
The subject of assay [13] is Rattus norvegicus. In words: Hallucinogenic property was determined in groups of LSD trained rats and percentage of animals disrupted was reported at a dose 4.10 (umol/kg),(number of animals = 10).
Assay [14] deals with Rattus norvegicus. Put plainly: Percentage of animals disrupted in groups of MDMA trained rats at a dose of 12.31 (umol/kg),(number of animals = 8).
In assay [15] the test system is Rattus norvegicus. Put plainly: Percentage of animals disrupted in groups of MDMA trained rats at a dose of 16.41 (umol/kg),(number of animals = 11).
The subject of assay [16] is Rattus norvegicus. Put plainly: Percentage of animals disrupted in groups of MDMA trained rats at a dose of 8.21 (umol/kg),(number of animals = 9).
Assay [17] relates to Rattus norvegicus. Put plainly: Tested for stimulus generation in rats trained to discriminate +/-MDMA from saline at 17.44i (umol/kg),(number of animals = 11).
The subject of assay [18] is Rattus norvegicus. Put plainly: Percentage of animals disrupted in groups of MDMA trained rats at a dose of 17.44 (umol/kg),(number of animals = 11).
Assay [19] concerns Rattus norvegicus. Put plainly: Tested for stimulus generation in rats trained to discriminate LSD from saline at a 18.46 (umol/kg),(number of animals = 9).
The subject of assay [20] is Rattus norvegicus. Put plainly: Tested for stimulus generation in rats trained to discriminate LSD from saline at a dose 6.15 (umol/kg),(number of animals = 11).
Assay [21] deals with Rattus norvegicus. In words: Tested for stimulus generation in rats trained to discriminate LSD from saline at a dose 8.21 (umol/kg),(number of animals = 8).

Take `COc1cc(C)c(OC)c2c1CC(N)C2` (stereo unspecified): the D in the assay with Rattus norvegicus [1] is 0%; in the assay on Rattus norvegicus [4], 0%; in the assay with Rattus norvegicus [6] it was 0%; with Rattus norvegicus [9] it was 27%; in the assay with Rattus norvegicus [11] it was 71%; with Rattus norvegicus [12], 27%. Besides, the D was 0% in the assay with Rattus norvegicus [13]; 0% in the assay with Rattus norvegicus [14]; 27% in the assay on Rattus norvegicus [15]; 11% with Rattus norvegicus [16]; 27% in the assay on Rattus norvegicus [18]. In addition, the SDL in the assay with Rattus norvegicus [2] was 25%; in the assay on Rattus norvegicus [3] it was 75%; in the assay with Rattus norvegicus [5], 13%; with Rattus norvegicus [7], 38%; in the assay with Rattus norvegicus [8], 63%; with Rattus norvegicus [10], 20%. The SDL turned out to be 50% in the assay with Rattus norvegicus [17], 89% with Rattus norvegicus [19], 38% in the assay on Rattus norvegicus [20] and 38% in the assay on Rattus norvegicus [21].

For the origin of these results see ChEMBL document CHEMBL1125092, “Nonneurotoxic tetralin and indan analogues of 3,4-(methylenedioxy)amphetamine (MDA)” (J Med Chem, 1990).
